According to patent US12053506B2, “Romo1-derived antimicrobial peptides and variants thereof” (priority 2019, dated 2024):
No end group written: not given here.

Key:
[1] = tested on: Pseudomonas aeruginosa (ATCC 27853); format: cell-based; conditions: for MBC value (μg/ml) against Pseudomonas aeruginosa: ATCC 27853, 1 h; for MBC Pseudomonas aeruginosa: Tables 11-15, no unit printed
Text: (§1) Romo1 protein comprises two α-helices. The present inventors synthesized the α-helix 2 region having both hydrophilicity and hydrophobicity, and evaluated the antibacterial activity thereof using minimum bactericidal concentration (MBC) assay. The α-helix 2 region was named KU-5279 (the 52-79 amino acid region of Romo1 protein). Then, in order to identify peptides that are beneficial for human application and have excellent antibacterial activity, the present inventors synthesized several peptides comprising a sequence of contiguous amino acids starting at any amino acid selected from the 52-79 amino acid region of Romo1 protein, and comparatively evaluated the antibacterial activities of the peptides by minimum bactericidal concentration assay (See Table 1 below for information on each peptide). Evaluation of the antibacterial activity of each peptide by minimum bactericidal concentration assay was specifically performed as follows. First, each of Pseudomonas aeruginosa (ATCC 27853) and Staphylococcus aureus (ATCC 29213) was cultured in 3% (w/v) TSB (Tryptic Soy Broth) liquid medium at 37° C. and 200 rpm for 4 hours, and then further cultured under the same conditions for 3 hours to a concentration of 5×10^6 CFU/ml. Strain solutions were prepared by diluting each of the further cultured strains with SP (sodium phosphate; 10 mM sodium phosphate, 1% TSB) buffer to a final concentration of 2×10^5 CFU/ml. Then, each peptide at varying concentrations (0 μg/ml to 300 μg/ml) was dispensed into each well of a 96-well microplate, and 100 μl (1×10^5 CFU/ml) of each of the prepared strain solutions was added thereto, mixed therewith, and allowed to react with the peptide in an incubator at 37° C. for 1 hour. In addition, 30 g/L of TS (tryptic soy) and 15 g/L of agar were dissolved in distilled water and sterilized, and then 25 ml of the solution was poured onto a 100 mm round plate and solidified at room temperature for one day or more, thereby preparing a TS agar plate. 10 μl of each reaction solution of the peptide and the strain was plated on the TS agar plate at a constant size, and incubated in an incubator at 37° C. for 18 hours, and then colony formation on the plate was checked. The minimum bactericidal concentration was defined as the minimum concentration of the peptide at which no colony was formed, and the experimental results are shown in Table 1 below.

[2] = tested on: Staphylococcus aureus (ATCC 29213); format: cell-based; conditions: for MBC value (μg/ml) against Staphylococcus aureus: ATCC 29213, 1 h; for MBC Staphylococcus aureus: Tables 11-15, no unit printed
Text: as §1

[3] = tested on: methicillin-resistant Staphylococcus aureus (ATCC 33591); conditions: Tables 11-15, no unit printed
Procedure: First, each of Pseudomonas aeruginosa (ATCC 27853) and Staphylococcus aureus (ATCC 29213) was cultured in 3% (w/v) TSB (Tryptic Soy Broth) liquid medium at 37° C. and 200 rpm for 4 hours, and then further cultured under the same conditions for 3 hours to a concentration of 5×10^6 CFU/ml. Strain solutions were prepared by diluting each of the further cultured strains with SP (sodium phosphate; 10 mM sodium phosphate, 1% TSB) buffer to a final concentration of 2×10^5 CFU/ml.
Then, each peptide at varying concentrations (0 μg/ml to 300 μg/ml) was dispensed into each well of a 96-well microplate, and 100 μl (1×10^5 CFU/ml) of each of the prepared strain solutions was added thereto, mixed therewith, and allowed to react with the peptide in an incubator at 37° C. for 1 hour.
In addition, 30 g/L of TS (tryptic soy) and 15 g/L of agar were dissolved in distilled water and sterilized, and then 25 ml of the solution was poured onto a 100 mm round plate and solidified at room temperature for one day or more, thereby preparing a TS agar plate. 10 μl of each reaction solution of the peptide and the strain was plated on the TS agar plate at a constant size, and incubated in an incubator at 37° C. for 18 hours, and then colony formation on the plate was checked.
Specifically, each type of bacteria was cultured in 3% (w/v) TSB (Tryptic Soy Broth) liquid medium at 37° C. and 200 rpm for 4 hours, and then further cultured under the same conditions for 3 hours to a concentration of 5×10^6 CFU/ml. Strain solutions were prepared by diluting each of the […] of 2×10^5 CFU/ml.
Then, the KU-5878 peptide at varying concentrations (0 μg/ml to 300 μg/ml) was dispensed into each well of a 96-well microplate, and 100 μl (1×10^5 CFU/ml) of each of the prepared strain solutions was added thereto, mixed therewith, and allowed to react with the peptide in an incubator at 37° C. for 1 hour.
In addition, 10 μl of each reaction solution of the peptide and the strain was plated on the TS agar plate at a constant size, and incubated in an incubator at 37° C. for 18 hours, and then colony formation on the plate was checked.

CRPA = test: MBC, evaluation of antibacterial activities of KU-5878 variants; format: cell-based; conditions: Tables 11-15, no unit printed
Procedure: Variants were prepared by deleting one amino acid from the amino acid sequence of KU-5878 (SEQ ID NO: 13), and the antibacterial activities thereof were evaluated.
Variants were prepared by deleting two or more amino acids from the amino acid sequence of KU-5878 (SEQ ID NO: 13), and the antibacterial activities thereof were evaluated.
One amino acid in the amino acid sequence of KU-5878 (SEQ ID NO: 13) was substituted, and the antibacterial activities of the peptides were evaluated.
Substitutions of Q62K, S63K and T66K were sequentially added to the amino acid sequence of KU-5878-T59K, and the antibacterial activities of the peptides were evaluated.
An amino acid repeat sequence was added to the C-terminus of KU-5878, and the antibacterial activities of the peptides were evaluated. According to Table 15 below, when the R (arginine) repeat sequence or K (lysine) sequence was added to the C-terminus of KU-5878, the antibacterial activity of the peptide increased.

KTMMQSGGTAGTFMAIGMGIR [KU-5878-F67A]
MBC value (μg/ml) against Pseudomonas aeruginosa [1]: >300 µg/mL | MBC Pseudomonas aeruginosa [1]: > 300 µg/mL | MBC value (μg/ml) against Staphylococcus aureus [2]: >300 µg/mL | MBC Staphylococcus aureus [2]: > 300 µg/mL | MBC MRSA [3]: > 300 µg/mL | MBC CRPA (CRPA): > 300 µg/mL

KTMMQSGGTFGTFMAKGMGIR [KU-5878-I73K]
MBC value (μg/ml) against Pseudomonas aeruginosa [1]: >300 µg/mL | MBC Pseudomonas aeruginosa [1]: > 300 µg/mL | MBC value (μg/ml) against Staphylococcus aureus [2]: >300 µg/mL | MBC Staphylococcus aureus [2]: > 300 µg/mL | MBC MRSA [3]: > 300 µg/mL | MBC CRPA (CRPA): > 300 µg/mL

KTMMQSGGTFGTFMAWGMGIR [KU-5878-I73W]
MBC value (μg/ml) against Pseudomonas aeruginosa [1]: 300 µg/mL | MBC Pseudomonas aeruginosa [1]: 300 µg/mL | MBC value (μg/ml) against Staphylococcus aureus [2]: 300 µg/mL | MBC Staphylococcus aureus [2]: 300 µg/mL | MBC MRSA [3]: > 300 µg/mL | MBC CRPA (CRPA): 300 µg/mL

KTMMQSGGTFGTFMAIGMGKR [KU-5878-I77K]
MBC value (μg/ml) against Pseudomonas aeruginosa [1]: >300 µg/mL | MBC Pseudomonas aeruginosa [1]: > 300 µg/mL | MBC value (μg/ml) against Staphylococcus aureus [2]: >300 µg/mL | MBC Staphylococcus aureus [2]: > 300 µg/mL | MBC MRSA [3]: > 300 µg/mL | MBC CRPA (CRPA): > 300 µg/mL

KTMMQSGGTFGTF-AIG-GIR [5878-d71M, d75M]
MBC Pseudomonas aeruginosa [1]: 300 µg/mL | MBC Staphylococcus aureus [2]: 250 µg/mL | MBC MRSA [3]: 300 µg/mL | MBC CRPA (CRPA): 300 µg/mL

KTMMQSGGTFGTFMAIGMGAR [KU-5878-I77A]
MBC value (μg/ml) against Pseudomonas aeruginosa [1]: >300 µg/mL | MBC Pseudomonas aeruginosa [1]: > 300 µg/mL | MBC value (μg/ml) against Staphylococcus aureus [2]: >300 µg/mL | MBC Staphylococcus aureus [2]: > 300 µg/mL | MBC MRSA [3]: > 300 µg/mL | MBC CRPA (CRPA): > 300 µg/mL

KTMMQTGGTFGTFMAIGMGIR [KU-5878-S63T]
MBC Pseudomonas aeruginosa [1]: > 300 µg/mL | MBC Staphylococcus aureus [2]: > 300 µg/mL | MBC MRSA [3]: > 300 µg/mL | MBC CRPA (CRPA): > 300 µg/mL

KTMMQSGGTFGTFMAAGMGIR [KU-5878-I73A]
MBC value (μg/ml) against Pseudomonas aeruginosa [1]: >300 µg/mL | MBC Pseudomonas aeruginosa [1]: > 300 µg/mL | MBC value (μg/ml) against Staphylococcus aureus [2]: >300 µg/mL | MBC Staphylococcus aureus [2]: > 300 µg/mL | MBC MRSA [3]: > 300 µg/mL | MBC CRPA (CRPA): > 300 µg/mL

KTMMHSGGTFGTFMAIGMGIR [KU-5878-Q62H]
MBC Pseudomonas aeruginosa [1]: > 300 µg/mL | MBC Staphylococcus aureus [2]: > 300 µg/mL | MBC MRSA [3]: > 300 µg/mL | MBC CRPA (CRPA): > 300 µg/mL

KTMMQSGGTFGTKMAIGMGIR [KU-5878-F70K]
MBC value (μg/ml) against Pseudomonas aeruginosa [1]: >300 µg/mL | MBC Pseudomonas aeruginosa [1]: > 300 µg/mL | MBC value (μg/ml) against Staphylococcus aureus [2]: >300 µg/mL | MBC Staphylococcus aureus [2]: > 300 µg/mL | MBC MRSA [3]: > 300 µg/mL | MBC CRPA (CRPA): > 300 µg/mL

KTMMQSGGTFGTFMAIGMGI- [Peptide 5878-d78R]
MBC Pseudomonas aeruginosa [1]: 300 µg/mL | MBC Staphylococcus aureus [2]: 300 µg/mL | MBC MRSA [3]: > 300 µg/mL | MBC CRPA (CRPA): > 300 µg/mL

KTMMQHGGTFGTFMAIGMGIR [KU-5878-S63H]
MBC Pseudomonas aeruginosa [1]: 100 µg/mL | MBC Staphylococcus aureus [2]: 100 µg/mL | MBC MRSA [3]: 110 µg/mL | MBC CRPA (CRPA): 100 µg/mL

KT-MQSGGTFGTFM-IG-GIR [5878-d60M, d72A, d75M]
MBC Pseudomonas aeruginosa [1]: 300 µg/mL | MBC Staphylococcus aureus [2]: 280 µg/mL | MBC MRSA [3]: 300 µg/mL | MBC CRPA (CRPA): 300 µg/mL

KTMMQSGGTFGTFMA-GMGIR [Peptide 5878-d73I]
MBC Pseudomonas aeruginosa [1]: > 300 µg/mL | MBC Staphylococcus aureus [2]: > 300 µg/mL | MBC MRSA [3]: > 300 µg/mL | MBC CRPA (CRPA): > 300 µg/mL

KTAMQSGGTFGTFMAIGMGIR [KU-5878-M60A]
MBC value (μg/ml) against Pseudomonas aeruginosa [1]: >300 µg/mL | MBC Pseudomonas aeruginosa [1]: > 300 µg/mL | MBC value (μg/ml) against Staphylococcus aureus [2]: >300 µg/mL | MBC Staphylococcus aureus [2]: > 300 µg/mL | MBC MRSA [3]: > 300 µg/mL | MBC CRPA (CRPA): > 300 µg/mL

KTMMQSGGTFGTFMAIGMAIR [KU-5878-G76A]
MBC value (μg/ml) against Pseudomonas aeruginosa [1]: >400 µg/mL | MBC Pseudomonas aeruginosa [1]: > 300 µg/mL | MBC value (μg/ml) against Staphylococcus aureus [2]: >400 µg/mL | MBC Staphylococcus aureus [2]: > 300 µg/mL | MBC MRSA [3]: > 300 µg/mL | MBC CRPA (CRPA): > 300 µg/mL

KTMMQSGGTFGTFMAIGMGIRKK [Peptide 5878-KK]
MBC Pseudomonas aeruginosa [1]: 15 µg/mL | MBC Staphylococcus aureus [2]: 16 µg/mL | MBC MRSA [3]: 16 µg/mL | MBC CRPA (CRPA): 16 µg/mL

KTMMQSGGTFGTFM-IGMGIR [Peptide 5878-d72A]
MBC Pseudomonas aeruginosa [1]: 150 µg/mL | MBC Staphylococcus aureus [2]: 150 µg/mL | MBC MRSA [3]: 160 µg/mL | MBC CRPA (CRPA): 170 µg/mL

KHMMQSGGTFGTFMAIGMGIR [KU-5878-T59H]
MBC Pseudomonas aeruginosa [1]: > 300 µg/mL | MBC Staphylococcus aureus [2]: > 300 µg/mL | MBC MRSA [3]: > 300 µg/mL | MBC CRPA (CRPA): > 300 µg/mL

KTMMQS-GTFGTFMAIGMGIR [Peptide 5878-d64G]
MBC Pseudomonas aeruginosa [1]: 100 µg/mL | MBC Staphylococcus aureus [2]: 100 µg/mL | MBC MRSA [3]: 100 µg/mL | MBC CRPA (CRPA): 110 µg/mL

KTMMQSGGTFGTFMAIGMGGR [KU-5878-I77G]
MBC value (μg/ml) against Pseudomonas aeruginosa [1]: 80 µg/mL | MBC Pseudomonas aeruginosa [1]: 80 µg/mL | MBC value (μg/ml) against Staphylococcus aureus [2]: 90 µg/mL | MBC Staphylococcus aureus [2]: 90 µg/mL | MBC MRSA [3]: 90 µg/mL | MBC CRPA (CRPA): 100 µg/mL

KTMMQSGGTFGTFMGIGMGIR [KU-5878-A72G]
MBC value (μg/ml) against Pseudomonas aeruginosa [1]: 350 µg/mL | MBC Pseudomonas aeruginosa [1]: > 300 µg/mL | MBC value (μg/ml) against Staphylococcus aureus [2]: 350 µg/mL | MBC Staphylococcus aureus [2]: > 300 µg/mL | MBC MRSA [3]: > 300 µg/mL | MBC CRPA (CRPA): > 300 µg/mL
